Source: patent US4358448A, “N-substituted thiazolyl derivatives of oxy-imino-substituted cephalosporins useful as anti-bacterial agents” (Farmitalia Carlo Erba S.p.A., priority 1979, dated 1982)

Key:
[1] = tested on: Escherichia coli G, Klebsiella pneumoniae ATCC 10031, Proteus mirabilis ATCC 9921, Escherichia coli Tem., Haemophilus influenzae, Salmonella typhi Watson and …; assay: in vivo tests in infected mice; details: in words
streptococci = assay: antibacterial activity against streptococci, relative to reference cephalosporin; type: cell-based
[2] = tested on: beta-lactamase producers organisms, such as Klebsiella aerogenes 1082 E, Enterobacter cloacae P 99, Escherichia coli Tem; assay: antibacterial activity against beta-lactamase producers organisms; type: cell-based; details: in words
[3] = tested on: most Gram-negative bacteria; assay: antibacterial activity against most Gram-negative bacteria, relative to reference cephalosporins; type: cell-based
[4] = tested on: clinical isolates of indole-positive Proteus; assay: antibacterial activity against clinical isolates of indole-positive Proteus relative to HR-756; type: cell-based; details: in words
[5] = approximate acute toxicity in the mouse, single intravenous administration; details: in vivo, single intravenous administrations of increasing doses, measured on the seventh day
Excerpt: The toxicity of the compounds of the invention is quite negligible and therefore they can be safely used in therapy.

[6] = tested on: Bacteroides fragilis VPI 9032; assay: antibacterial activity against Bacteroides fragilis relative to Cefotaxime; type: cell-based; details: in words

CO/N=C(\C(=O)N[C@@H]1C(=O)N2C(C(=O)O)=C(CSc3ccc4nnnn4n3)CS[C@H]12)c1csc(=N)n1O [FCE 20635, 7β-[2-(2-imino-3-hydroxy-4-thiazolinyl)-2-methoxyimino-acetamido]-3-[(tetrazolo[1,5-b]pyridazin-6-yl)-thiomethyl]-3-cephem-4-carboxylic acid (syn-isomer)]
activity in vivo tests [1]: high activity
times more active than Cefazolin (streptococci): about 4 times
activity against most beta-lactamase producers organisms [2]: high activity
times more active than Cefazolin [3]: about 30 times
times more active than Cefuroxime [3]: about 40 times
activity compared with HR-756 [4]: more active than HR-756
LD50 at 168 h [5]: > 2000 mg/kg
activity compared with Cefotaxime [6]: at least as active as Cefotaxime
